BindingDB's records for doi:10.1016/j.bmc.2011.04.011 (University of Toyama, 2011)

target: T1, Lysosomal acid glucosylceramidase (Bos taurus, UniProt Q2KHZ8); assay: Inhibition of bovine liver beta-glucosidase assessed as production of 4-methylumbelliferone using 4-methylumbelliferyl beta-D-glucoside as substrate by spectrophotometry
T1 sequence (Q2KHZ8 whole entry): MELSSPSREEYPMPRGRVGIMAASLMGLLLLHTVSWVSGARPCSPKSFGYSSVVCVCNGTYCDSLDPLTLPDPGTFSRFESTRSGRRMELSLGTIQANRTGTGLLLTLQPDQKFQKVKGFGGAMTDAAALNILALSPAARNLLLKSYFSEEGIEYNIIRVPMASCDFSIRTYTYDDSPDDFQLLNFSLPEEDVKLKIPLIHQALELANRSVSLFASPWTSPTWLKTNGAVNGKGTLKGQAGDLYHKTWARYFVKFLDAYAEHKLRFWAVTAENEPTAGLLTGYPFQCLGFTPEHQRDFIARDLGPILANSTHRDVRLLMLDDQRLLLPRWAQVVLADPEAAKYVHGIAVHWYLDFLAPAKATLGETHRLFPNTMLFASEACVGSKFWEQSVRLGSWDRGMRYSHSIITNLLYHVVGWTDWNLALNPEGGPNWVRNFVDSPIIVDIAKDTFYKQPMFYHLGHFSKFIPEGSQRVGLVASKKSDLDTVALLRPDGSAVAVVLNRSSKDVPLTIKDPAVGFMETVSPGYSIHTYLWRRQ

IC50 [µM]	SMILES
5.6	OC[C@H]1NCC[C@H](O)[C@@H]1O [3-epifagomine]
611	OC[C@@H]1CNC[C@H](O)[C@H]1O [L-Isofagomine]
250	OC[C@H]1NCC[C@@H](O)[C@@H]1O [(2R,3R,4R)-2-Hydroxymethyl-piperidine-3,4-diol]
31	OC[C@H]1CNC[C@@H](O)[C@@H]1O
